Assay results published in US6803457B1, “Compounds for the treatment of ischemia” (Pfizer, Inc., priority 1999, dated 2004).

| SMILES | melting point |
| --- | --- |
| CNC(=O)[C@H]1O[C@@H](n2cnc3c(NCc4cc(Cl)ccc4OCC4OC(O)C(O)C(O)C4O)ncnc32)[C@H](O)[C@@H]1N (stereo partly drawn) [Example 2, (2S,3S,4R,5R)3-Amino-5-{6-[5-chloro-2-(3,4,5,6-tetrahydroxytetrahydropyran-2-ylmethoxy)benzylamino]purin-9-yl}-4-hydroxytetrahydrofuran-2-carboxylic acid methylamide] | 212 to 218 °C |
| CNC(=O)[C@H]1O[C@@H](n2cnc3c(NCc4cc(Cl)ccc4OCCN4CCOCC4)ncnc32)[C@H](O)[C@@H]1N [Example 4, (2S,3S,4R,5R)3-Amino-5-{6-[5-chloro-2-(2-morpholin-4-ylethoxy)benzylamino]-purin-9-yl}-4-hydroxytetrahydrofuran-2-carboxylic acid methylamide] | 99 to 108 °C |
| CNC(=O)[C@H]1O[C@@H](n2cnc3c(NCc4cc(Cl)ccc4OCC4CCC4)ncnc32)[C@H](O)[C@@H]1N [Example 5, (2S,3S,4R,5R)3-Amino-5-[6-(5-chloro-2-cyclobutylmethoxybenzylamino)-purin-9-yl]-4-hydroxytetrahydrofuran-2-carboxylic acid methylamide] | 107 to 117 °C |
| CNC(=O)[C@H]1O[C@@H](n2cnc3c(NCc4cc(Cl)ccc4OCc4cccc(OC)c4)ncnc32)[C@H](O)[C@@H]1N [Example 6, (2S,3S,4R,5R)3-Amino-5-{6-[5-chloro-2-(3-methoxy-benzyloxy)-benzylamino]-purin-9-yl}-4-hydroxytetrahydrofuran-2-carboxylic acid methylamide] | 102 to 108 °C |
| CNC(=O)[C@H]1O[C@@H](n2cnc3c(NCc4cc(Cl)ccc4OCc4cc(OC)ccc4OC)ncnc32)[C@H](O)[C@@H]1N [Example 7, (2S,3S,4R,5R)3-Amino-5-{6-[5-chloro-2-(2,5-dimethoxy-benzyloxy)-benzylamino]-purin-9-yl}-4-hydroxytetrahydrofuran-2-carboxylic acid methylamide] | 112 to 115 °C |
| CNC(=O)[C@H]1O[C@@H](n2cnc3c(NCc4cc(Cl)ccc4OCc4cccc(Cl)c4)ncnc32)[C@H](O)[C@@H]1N [Example 8, (2S,3S,4R,5R)3-Amino-5-{6-[5-chloro-2-(3-chloro-benzyloxy)-benzylamino]-purin-9-yl}-4-hydroxytetrahydrofuran-2-carboxylic acid methylamide] | 85 to 90 °C |
| CNC(=O)[C@H]1O[C@@H](n2cnc3c(NCc4cc(Cl)ccc4OCc4ccc(Cl)cc4)ncnc32)[C@H](O)[C@@H]1N [Example 9, (2S,3S,4R,5R)3Amino-5-{6-[5-chloro-2-(4-chloro-benzyloxy)-benzylamino]-purin-9-yl}-4-hydroxytetrahydrofuran-2-carboxylic acid methylamide] | 88 to 92 °C |
| CNC(=O)[C@H]1O[C@@H](n2cnc3c(NCc4cc(Cl)ccc4OCc4ccccc4Cl)ncnc32)[C@H](O)[C@@H]1N [Example 10, (2S,3S,4R,5R)3-Amino-5-{6-[5-chloro-2-(2-chloro-benzyloxy)-benzylamino]-purin-9-yl}-4-hydroxytetrahydrofuran-2-carboxylic acid methylamide] | 88 to 92 °C |
| CNC(=O)[C@H]1O[C@@H](n2cnc3c(NCc4cc(Cl)ccc4OCC4CCOC4)ncnc32)[C@H](O)[C@@H]1N (stereo partly drawn) [Example 11, (2S,3S,4R,5R)3-Amino-5-{6-[5-chloro-2-(tetrahydrofuran-3-ylmethoxy)-benzylamino]-purin-9yl}-4-hydroxytetrahydrofuran-2-carboxylic acid methylamide] | 114 to 118 °C |
| CNC(=O)[C@H]1O[C@@H](n2cnc3c(NCc4cc(Cl)ccc4OCc4ccc(C)cc4)ncnc32)[C@H](O)[C@@H]1N [Example 12, (2S,3S,4R,5R)3-Amino-5-{6-[5-chloro-2-(4-methyl-benzyloxy)-benzylamino]-purin-9-yl}-4-hydroxytetrahydrofuran-2-carboxylic acid methylamide] | 82 to 86 °C |
| CNC(=O)[C@H]1O[C@@H](n2cnc3c(NCc4cc(Cl)ccc4OCc4ccccc4C)ncnc32)[C@H](O)[C@@H]1N [Example 13, (2S,3S,4R,5R)3-Amino-5-{6-[5-chloro-2-(2-methyl-benzyloxy)-benzylamino]-purin-9-yl}-4-hydroxytetrahydrofuran-2-carboxylic acid methylamide] | 76 to 80 °C |
| CNC(=O)[C@H]1O[C@@H](n2cnc3c(NCc4cc(Cl)ccc4OCc4cccc(C)c4)ncnc32)[C@H](O)[C@@H]1N [Example 14, (2S,3S,4R,5R)3-Amino-5-{6-[5-chloro-2-(3-methyl-benzyloxy)-benzylamino]-purin-9-yl}-4-hydroxytetrahydrofuran-2-carboxylic acid methylamide] | 92 to 97 °C |
| CNC(=O)[C@H]1O[C@@H](n2cnc3c(NCc4cc(Cl)ccc4OCc4ccccc4OC)ncnc32)[C@H](O)[C@@H]1N [Example 15, (2S,3S,4R,5R)3-Amino-5-{6-[5-chloro-2-(2-methoxybenzyloxy)benzylamino]-purin-9-yl}-4-hydroxytetrahydrofuran-2-carboxylic acid methylamide] | 102 to 123 °C |
| CNC(=O)[C@H]1O[C@@H](n2cnc3c(NCc4cc(Cl)ccc4OCc4ccoc4)ncnc32)[C@H](O)[C@@H]1N [Example 16, (2S,3S,4R,5R)3-Amino-5-{6-[5-chloro-2-(furan-3-ylmethoxy)benzylamino]-purin-9-yl}-4-hydroxytetrahydrofuran-2carboxylic acid methylamide] | 93 to 97 °C |
| CNC(=O)[C@H]1O[C@@H](n2cnc3c(NCc4cc(Cl)ccc4OCC4CCCC4)ncnc32)[C@H](O)[C@@H]1N [Example 18, (2S,3S,4R,5R)3-Amino-5-[6-(5-chloro-2-cyclopentylmethoxy-benzylamino)-purin-9-yl]-4-hydroxytetrahydrofuran-2-carboxylic acid methylamide] | 110.6 to 116.2 °C |
| CNC(=O)[C@H]1O[C@@H](n2cnc3c(NCc4cc(Cl)ccc4OCC4CCOC4)ncnc32)[C@H](O)[C@@H]1N (stereo partly drawn) [Example 20, (2S,3S,4R,5R)3-Amino-5-{6-[5-chloro-2-(tetrahydro-furan-3-ylmethoxy)-benzylamino]-purin-9-yl}-4-hydroxy-tetrahydro-furan-2-carboxylic acid methylamide] | 132 to 161 °C |
| CNC(=O)[C@H]1O[C@@H](n2cnc3c(NCc4cc(Cl)ccc4OCc4ccco4)ncnc32)[C@H](O)[C@@H]1N [Example 22, (2S,3S,4R,5R)3-Amino-5-{6-(5-chloro-2-(furan-2-ylmethoxy)benzylamino]purin-9-yl}-4-hydroxytetrahydrofuran-2-carboxylic acid methylamide] | 187 to 192 °C |
| CNC(=O)[C@H]1O[C@@H](n2cnc3c(NCc4cc(Cl)ccc4OCc4cc(C)oc4C)ncnc32)[C@H](O)[C@@H]1N [Example 24, (2S,3S,4R,5R)3-Amino-5-{6-[5-chloro-2-(2,5-dimethylfuran-3-ylmethoxy)benzylamino]purin-9-yl}-4-hydroxytetrahydrofuran-2-carboxylic acid methylamide] | 85 to 88 °C |
| CNC(=O)[C@H]1O[C@@H](n2cnc3c(NCc4cc(Cl)ccc4OCc4cccnc4)ncnc32)[C@H](O)[C@@H]1N [Example 25, (2S,3S,4R,5R)3-Amino-5-{6-[5-chloro-2-(pyridin-3-ylmethoxy)benzylamino]purin-9-yl}-4-hydroxytetrahydrofuran-2-carboxylic acid methylamide] | 200 to 218 °C |
| CNC(=O)[C@H]1O[C@@H](n2cnc3c(NCc4cc(Cl)ccc4OCc4ccc(CN(C)C)o4)ncnc32)[C@H](O)[C@@H]1N [Example 26, (2S,3S,4R,5R)3-Amino-5-{6-[5-chloro-2-(5-dimethylaminomethylfuran-2-ylmethoxy)benzylamino]purin-9-yl}-4-hydroxytetrahydrofuran-2-carboxylic acid methylamide] | 78 to 81 °C |
| CNC(=O)[C@H]1O[C@@H](n2cnc3c(NCc4cc(Cl)ccc4OCc4nccs4)ncnc32)[C@H](O)[C@@H]1N [Example 27, (2S,3S,4R,5R)3-Amino-5-{6-[5-chloro-2-(thiazol-2-ylmethoxy)-benzylamino]-purin-9-yl}-4-hydroxy-tetrahydro-furan-2-carboxylic acid methylamide] | 208 to 209 °C |
| CNC(=O)[C@H]1O[C@@H](n2cnc3c(NCc4cc(Cl)ccc4OCc4nc5ccccc5s4)ncnc32)[C@H](O)[C@@H]1N [Example 28, (2S,3S,4R,5R)3-Amino-5-{6-[2-(benzothiazol-2-ylmethoxy)-5-chlorobenzylamino]purin-9-yl}-4-hydroxytetrahydrofuran-2-carboxylic acid methylamide] | 127 to 129 °C |
| CNC(=O)[C@H]1O[C@@H](n2cnc3c(NCc4cc(Cl)ccc4OCc4cc5ccccc5o4)ncnc32)[C@H](O)[C@@H]1N [Example 29, (2S,3S,4R,5R)3-Amino-5-{6-[2-(benzofuran-2-ylmethoxy)-5-chlorobenzylamino]purin-9-yl}-4-hydroxytetrahydrofuran-2-carboxylic acid methylamide] | 127 to 130 °C |
| CNC(=O)[C@H]1O[C@@H](n2cnc3c(NCc4cc(Cl)ccc4OCc4ccns4)ncnc32)[C@H](O)[C@@H]1N [Example 30, (2S,3S,4R,5R)3-Amino-5-{6-[5-chloro-2-(isothiazol-5-ylmethoxy)benzylamino]purin-9-yl}-4-hydroxytetrahydrofuran-2-carboxylic acid methylamide] | 180 to 183 °C |
| CNC(=O)[C@H]1O[C@@H](n2cnc3c(NCc4cc(Cl)ccc4OCc4cccs4)ncnc32)[C@H](O)[C@@H]1N [Example 31, (2S,3S,4R,5R)3-Amino-5-{6-[5-chloro-2-(thiophen-2-ylmethoxy)benzylamino]purin-9-yl}-4-hydroxytetrahydrofuran-2-carboxylic acid methylamide] | 135 to 141 °C |
| CNC(=O)[C@H]1O[C@@H](n2cnc3c(NCc4cc(Cl)ccc4OCc4ccc5ccccc5n4)ncnc32)[C@H](O)[C@@H]1N [Example 32, (2S,3S,4R,5R)3-Amino-5-{6-[5-chloro-2-(quinolin-2-ylmethoxy)benzylamino]purin-9-yl}-4-hydroxytetrahydrofuran-2-carboxylic acid methylamide] | 130 to 134 °C |
